Results published in patent US8658167B2, “Methods and compositions for treatment and diagnosis of fibrosis, tumor invasion, angiogenesis, and metastasis” (Gilead Biologics, Inc., priority 2007, dated 2014).

How the values were obtained:
LOXL2 = assay: Mode of inhibition of LOXL2; type: biochemical; details: 1,5-diaminopentane substrate; FIG. 21
Procedure: Mode of inhibition of antibodies against LOXL2 was conducted using the model described below. In these experiments, the dependence of the steady state rate on the concentration of 1,5-diaminopentane was monitored under increasing concentrations of antibody. The purpose was to assess whether the Km for substrate, kcat or both change in the presence of antibody. Parameter α describes the effect of the compound on substrate affinity. An α value equal to one describes a situation in which the compound binds equally well the free enzyme and the enzyme-substrate complex (non-competitive inhibition like). Values less than one describe an interaction in which the compound binds the enzyme-substrate complex (uncompetitive inhibition like). Values greater than one correspond to the compound binding the free enzyme better than the enzyme-substrate complex (competitive inhibition like). The β value describes the effect of the modulator on the rate of the enzyme. Inhibitors have values less than one (for a complete inhibitor β=0) and activators have values greater than one. […] The steady state rates were determined from the slope of the fluorescence response as a function of time as described above. Data was plotted as the dependence of steady state rate on the concentration of substrate (1,5-diaminopentane) at several fixed concentrations of antibody and analyzed with GraFit.

LOX = target: T1, LOX (Mus musculus, UniProt P28301); assay: Surface-associated LOX activity in 3T3 cells (HRP-coupled Amplex Ultra Red assay, 1,5-diaminopentane substrate); type: cell-based; details: BAPN 1 mM; LOX mAb 15 ug/ml; LOX siRNA 100 nM, day seven after transfection; FIG. 15
T1 construct: Specific LOX activity was evident on the cell surface of NIH3T3 cells; endogenous in cells; host or cells: NIH 3T3
T1 sequence (P28301 163-411): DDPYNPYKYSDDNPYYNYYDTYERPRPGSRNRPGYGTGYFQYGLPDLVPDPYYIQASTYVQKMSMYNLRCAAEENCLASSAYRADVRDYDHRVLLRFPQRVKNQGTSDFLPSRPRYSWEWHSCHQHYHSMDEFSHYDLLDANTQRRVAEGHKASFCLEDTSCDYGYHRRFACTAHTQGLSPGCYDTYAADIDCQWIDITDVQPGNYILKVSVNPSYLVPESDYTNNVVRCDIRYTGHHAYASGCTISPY
Procedure: Specific LOX activity was evident on the cell surface of NIH3T3 cells. Activity was quantitated with a horseradish peroxidase-coupled fluorescent assay method based on the oxidation of Amplex Ultra Red with a 1,5-diaminopentane substrate. LOX activity was inhibited with the irreversible small molecule inhibitor, BAPN, with a monoclonal antibody raised against a LOX peptide, and with a siRNA oligonucleotide specifically targeting LOX mRNA. (FIG. 15)
NIH 3T3 cells were transfected with 100 nM of LOX siRNA (Invitrogen Stealth, HSS106117, […] (SEQ ID NO:20)) or non-targeting control. 25 ul of Dharmafect® #3 (Dharmacon) was mixed with 1 ml of OPTIMEM I® (Invitrogen) and sat for 5 minutes at room temperature. 50 ul of 20 uM siRNA was then added, mixed and the transfection mix was incubated at room temperature for 15 minutes. 1 ml of transfection mix was then added to a trypsinized cell suspension in growth media containing 1×10^6 cells and the resulting mixture was plated into a 10 cm^2 culture dish. Six days after transfection, cells were trypsinized and re-plated into 96 well plate format at 50,000 cells/well. […] The plate was read in a Molecular Devices M5 plate reader at 37° C. The plate reader was configured to read fluorescence (ex=544 nm, em=590 nm) in kinetics mode for approximately 2.5 hours.

MDA-MB-231 = assay: Drug sensitivity assays with LOX/LOXL inhibition (CellTiter Glo viability); type: cell-based, human
Procedure: After 5 days of continuous exposure, cultures were rinsed and live cell number was determined using CellTiter Glo™ (Promega, San Luis Obispo, Calif.) according to manufacturer instructions. […] (FIGS. 36, 37, 38)
For siRNA drug sensitivity studies, cells were transiently transfected with […] LOX, LOXL2, or non-targeting Stealth Select™ RNAi validated oligos using the Dharmafect transfection reagent according to manufacturer instructions (Thermo Scientific, Lafayette, Colo.) 24 hrs prior to drug exposure. Knock down levels following drug exposure were verified with quantitative PCR. Stable shRNA cell lines were generated using the MISSION© shRNA Lentiviral System (Sigma-Aldrich, St. Louis, Mo.).

With `N#CCCN` [BAPN, β-aminoproprionitrile] the “mode of inhibition of LOXL2” value (LOXL2) was “competitive inhibitor” and the “surface-associated LOX activity in 3T3 cells” value (LOX) was “inhibited”.
For `COc1cccc2c1C(=O)c1c(O)c3c(c(O)c1C2=O)C[C@@](O)(C(=O)CO)C[C@@H]3O[C@H]1C[C@H](N)[C@H](O)[C@H](C)O1` [doxorubicin], the “decrease of calculated IC50” value (MDA-MB-231; MDA-MB-231 siLOX, siLOXL2 and siLOX/siLOXL2 double knockdown cell lines vs parent cell line (control), FIG. 39A) was 27%-55%.
For `C#Cc1cccc(Nc2ncnc3cc(OCCOC)c(OCCOC)cc23)c1` [erlotinib, Erlotinib], the “reduction in cell viability (calculated IC50 compared to control line)” value (MDA-MB-231; shLOXL2 knockdown cell line (shLOXL2.195) vs sh control, parental MDA-MB-231, FIG. 36) was “approximately 7 fold”.
`CN(Cc1cnc2nc(N)nc(N)c2n1)c1ccc(C(=O)N[C@@H](CCC(=O)O)C(=O)O)cc1` [methotrexate (MTX), methotrexate] gave a reduction in viability (MDA-MB-231; MDA-MB-231 shLOX knockdown cell line vs GFP control, FIG. 37) of roughly 2 fold.
